Series [1] addresses T1, Autotaxin (Homo sapiens, UniProt Q13822).
T1 construct: from tissue; host or cells: pooled human plasma
As to the kind of experiment: LPA formation in pooled human plasma (ex vivo autotaxin inhibition). Type of series: biochemical. The settings on record: 2 hours incubation. An outline of the steps: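 Pooled human plasma incubated 2 h with various compound concentrations; LPA 18:2 and 20:4 quantified by LC/MS/MS (negative-ion MRM, LPA17:0 internal standard) after butanol extraction. Inhibition of LPA formation relative to untreated plasma; IC50 by non-linear regression.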

Series [2] is described as follows: Pharmacokinetics after a single oral dose in SD rats. Format: in vivo. Conditions: Sprague-Dawley, rat, plasma, single oral dose in 0.5% methylcellulose; for half-life: read-out: T½ (converted). An excerpt: (§1) The pharmacokinetics and pharmacodynamics of test compounds after a single oral dose were investigated in SD rats, Beagle dog and Cynomolgus monkey. SD Rats (200-250 g) were purchased from Beijing Vital River Laboratory Animal Technology Co., Ltd. Male Beagle Dog, 6-9 kg, were purchased from Beijing Mashall. Male Cynomolgus monkeys, 3-5 kg, were purchased from Suzhou Xishan Zhongke Drugs Research and Development Co., Ltd. Following arrival, the animals were acclimated for 7 days in individual cages maintained at ambient temperature, 34 to 68% relative humidity, and 12-h light/dark cycles. Just prior to dose administration the rats were fasted overnight with free access to water. Animals were given 10 mL/kg of formulated compound in 0.5% methylcellulose (MC) by oral gavage, and the animals were fed four hours after dosing. The animals were manually restrained at the designated time points (pre-dose, 0.5, 1, 3, 6, 9, 12, and 24 h post-dose) to collect blood. Approximately 120 μL of blood was collected via orbital sinus into K2EDTA tubes. The blood samples were centrifuged at 5000 rpm for 10 min at 4° C. to obtain plasma samples.
To determine the compound concentration in the plasma samples, a 10× calibration standard of compound were prepared by serial dilution in DMSO: 20000, 10000, 5000, 2000, 1000, 500, 200, 100, 50, 20, and 10 ng/mL. 3 μL of calibration standard solution was added into 27.0 μL of blank plasma in 1.5-mL microcentrifuge tubes to generate 1× calibration standards. The 30.0 μL of standards or study plasma was mixed with 200 μL of acetonitrile (containing 5 ng/mL verapamil for internal control) in a 1.5-mL microcentrifuge tube. After vertexing for 1 minute and centrifuging at 10000 rpm for 10 min, 180 μL of supernatant was transferred into a 96-well plate and the compound concentration in the plasma was quantitated using LC/MS/MS together with standards. Briefly, 1 μL of the solutions were injected for LC-MS/MS analysis using an Agilent Zorbax C18 column (50×2.1 mm, 3.5 μm) with mobile phase A [5 mM NH4Ac (0.1% FA)] and phase B [Methanol (0.1% FA)]. Mass spectrometer parameters optimization for compound was performed by infusing standard diluted at 1 μg/mL in water/methanol (1/1, v/v) directly in the ionization source at a flow of 10 μL/min. Quantitative data were acquired in multiple reaction monitoring (MRM) positive APCI mode.

Series [3] deals with T2, Autotaxin (Rattus norvegicus, UniProt Q64610).
T2 construct: from tissue; host or cells: SD rats in vivo; plasma sampled after a single oral dose
As to the kind of experiment: Pharmacodynamics: LPA 18:2 inhibition in plasma of SD rats after oral dose. The settings on record: single oral dose, LPA18:2 inhibition vs plasma concentration of compound, read-out: In vivo rat IC50 (LPA 18:2) (converted).
Excerpt: as §1
Autotaxin is a secreted phosphodiesterase that converts lysophosphatidylcholine (LPC) into lysophosphatidic acid (LPA), and LPA 18:2 formation was used to evaluate the efficacy of autotaxin inhibitors. Therefore, the LPA 18:2 formation in response to drug administration was analyzed in each time point to assess the pharmacodynamics of test compounds. To determine the LPA18:2 concentration in study plasma, a 10× calibration standard of LPA 18:2 were prepared by serial dilution in butyl alcohol: 20000, 10000, 5000, 2000, 1000, 500, 200, 100, 50, 20, and 10 ng/mL. 3 μL of calibration standard solution was added into 27.0 μL of blank plasma in 1.5-mL microcentrifuge tubes to generate 1× calibration standards. The 30.0 μL of standards or study plasma was added into 1.5-mL microcentrifuge tubes. 200 μL of butyl alcohol (containing 25.0 ng/mL LPA17:0 for internal control) was added into each 1.5-mL microcentrifuge tube containing study plasma or calibration standards. After vortexing for 1 minute and centrifuging at 10000 rpm for 10 min, 180 μL of supernatant was transferred into a 96-well plate and the LPA18:2 concentration in the plasma was quantitated using LC/MS/MS together with standards. Briefly, 8 μL of the solutions were injected for LC-MS/MS analysis using an ACQUITY UPLC BEH C18 column (2.1×50 mm, 1.7 μm) with mobile phase A [20 mM NH4OAC in water (0.1% FA)] and phase B [5 mM NH4OAC in water/0.2% FA in ACN=5:95]. Mass spectrometer parameters optimization for LPA18:2 were performed by infusing standard diluted at 1 μg/mL in butyl Alcohol directly in the ionization source, at a flow of 10 μL/min. Deprotonated molecular ion at m/z 433.2 ([M−H]−) for LPA18:2, and abundant product ion at m/z 152.8 for LPA18:2 were obtained. Quantitative data were acquired in multiple reaction monitoring (MRM) negative electrospray ionization mode
The percentage of LPA18:2 inhibition was plotted against the corresponding concentration of compound and the IC50 was calculated through non-linear regression fitting.

Setting [4] is: LPA 18:2 by LC/MS/MS, read-out: LPA formation (18:2) (IC50).
The mark [5] stands for this setting: LPA 20:4 by LC/MS/MS, read-out: LPA formation (20:4) (IC50).

The structures appear in SMILES notation. Where two headings read alike, the source gives them in different places. Some results are limits rather than exact numbers.

Broadly, the IC50 is the concentration that gives 50% inhibition. As usually defined, the AUC is the area under the concentration-time curve, a measure of exposure. For orientation: Cmax means the highest concentration seen after dosing.

As to `CN(c1nc(-c2ccc(F)cc2)c(C#N)s1)c1c(C2CC2)nn2cc(F)c(N3CCN(CC(=O)N4CC(O)C4)CC3)cc12` [Compound 113, 2-((2-cyclopropyl-6-fluoro-5-(4-(2-(3-hydroxyazetidin-1-yl)-2-oxoethyl)piperazin-1-yl)pyrazolo[1,5-a]pyridin-3-yl)(methyl)amino)-4-(4-fluorophenyl)thiazole-5-carbonitrile], the IC50 in series [1] (setting [4]) is at most 100 nM. In series [1] (setting [5]), the IC50 was at most 100 nM. Besides, in series [2], the AUC was 963 ± 501 ng·h/mL, the Cmax was found to be 177 ± 99 ng/mL and the half-life was 2.92 ± 0.31 h. Besides, the IC50 in series [3] is 14.8 nM.
As to `CN(c1nc(-c2ccc(F)cc2)c(C#N)s1)c1c(C2CC2)nn2cc(F)c(N3CC4(CN(C(=O)[C@H]5CCOC5)C4)C3)cc12` [Compound 114, (S)-2-((2-cyclopropyl-6-fluoro-5-(6-(tetrahydrofuran-3-carbonyl)-2,6-diazaspiro[3.3]heptan-2-yl)pyrazolo[1,5-a]pyridin-3-yl)(methyl)amino)-4-(4-fluorophenyl)thiazole-5-carbonitrile], the IC50 in series [1] (setting [4]) is at most 100 nM. Moreover, the IC50 in series [1] (setting [5]) is at most 100 nM. Besides, in series [2], the AUC stood at 1460 ± 1120 ng·h/mL, the peak level (Cmax) was 140 ± 102 ng/mL and the half-life is 3.72 ± 2.5 h. Besides, the IC50 in series [3] was 16 nM.
As to `CCn1nc2ncc(N3CC4(CN(C(=O)[C@H]5CCOC5)C4)C3)cc2c1N(C)c1nc(-c2ccc(F)cc2)c(C#N)s1` [Compound 117], the half-maximal inhibitory concentration (IC50) in series [1] (setting [4]) was at most 100 nM. Also, the IC50 in series [1] (setting [5]) is at most 100 nM. Besides, in series [2], the AUC turned out to be 2210 ± 704 ng·h/mL, the peak level (Cmax) was 584 ± 265 ng/mL and the half-life was 4.36 ± 1.3 h. The IC50 in series [3] was 176 nM.
In the case of `CCn1nc2nc(C)c(N3CCN(CC(=O)N4CC(O)C4)CC3)cc2c1N(C)c1nc(-c2ccc(F)cc2)c(C#N)s1` [Compound 119, 2-((2-ethyl-5-(4-(2-(3-hydroxyazetidin-1-yl)-2-oxoethyl)piperazin-1-yl)-6-methyl-2H-pyrazolo[3,4-b]pyridin-3-yl)(methyl)amino)-4-(4-fluorophenyl)thiazole-5-carbonitrile], the IC50 in series [1] (setting [4]) was at most 100 nM. In series [1] (setting [5]), the IC50 was at most 100 nM. In addition, in series [2], the exposure (AUC) came out at 222 ± 160 ng·h/mL, the concentration peaked (Cmax) at 96.2 ± 73 ng/mL and the half-life was 1.64 ± 1.27 h. The IC50 in series [3] was 18.6 nM.
On to `CCn1nc2nc(C)c(N3CC4(CN(C(=O)C5CCOCC5)C4)C3)cc2c1N(C)c1nc(-c2ccc(F)cc2)c(C#N)s1` [Compound 122, 2-((2-ethyl-6-methyl-5-(6-(tetrahydro-2H-pyran-4-carbonyl)-2,6-diazaspiro[3.3]heptan-2-yl)-2H-pyrazolo[3,4-b]pyridin-3-yl)(methyl)amino)-4-(4-fluorophenyl)thiazole-5-carbonitrile], for which the results for the IC50 in series [1] (setting [4]), in series [1] (setting [5]) and in series [3] were at most 100 nM, at most 100 nM and 26.8 nM, respectively. This molecule registered an AUC in series [2] of 1090 ± 544 ng·h/mL. Further, the maximum concentration (Cmax) in series [2] is 403 ± 341 ng/mL. The half-life in series [2] is 2.99 ± 3 h.
Take `CCc1nn2cc(C)c(N3CC4(CN(C(=O)[C@H]5CCOC5)C4)C3)cc2c1N(C)c1nc(-c2ccc(F)cc2)c(C#N)s1` [Example 97, (S)-2-((2-ethyl-6-methyl-5-(6-(tetrahydrofuran-3-carbonyl)-2,6-diazaspiro[3.3]heptan-2-yl)pyrazolo[1,5-a]pyridin-3-yl)(methyl)amino)-4-(4-fluorophenyl)thiazole-5-carbonitrile]: the IC50 in series [1] (setting [4]) was at most 100 nM. The half-maximal inhibitory concentration (IC50) in series [1] (setting [5]) was at most 100 nM. For the same molecule, in series [2], the AUC was 4690 ± 526 ng·h/mL, the peak concentration (Cmax) is 336 ± 33.8 ng/mL and the half-life was 5.41 ± 1.7 h. Besides, in series [3], the IC50 is 20 nM.
Turning to `[2H]c1c(F)c(N2CCN(CC(=O)N3CC(O)C3)CC2)cc2c(N(C)c3nc(-c4ccc(F)cc4)c(C#N)s3)c(CC)nn12` [Example 103, 2-((2-ethyl-6-fluoro-5-(4-(2-(3-hydroxyazetidin-1-yl)-2-oxoethyl)piperazin-1-yl)pyrazolo[1,5-a]pyridin-3-yl-7-d)(methyl)amino)-4-(4-fluorophenyl)thiazole-5-carbonitrile], the IC50 in series [1] (setting [4]) is at most 100 nM; in series [1] (setting [5]), at most 100 nM; in series [3] it was 48.6 nM. Also, the AUC in series [2] turned out to be 1080 ± 313 ng·h/mL. Further, the maximum concentration (Cmax) in series [2] came out at 209 ± 58 ng/mL. For the same molecule, the half-life in series [2] was 4.32 ± 1.5 h.
Regarding `CCc1nn2cc(F)c(N3CC4(CN(C(=O)C5CCN(C)CC5)C4)C3)cc2c1N(C)c1nc(-c2ccc(F)cc2)c(C#N)s1` [Example 106, 2-((2-ethyl-6-fluoro-5-(6-(1-methylpiperidine-4-carbonyl)-2,6-diazaspiro[3.3]heptan-2-yl)pyrazolo[1,5-a]pyridin-3-yl)(methyl)amino)-4-(4-fluorophenyl)thiazole-5-carbonitrile], the 50% inhibitory concentration (IC50) in series [1] (setting [4]) is at most 100 nM. Further, in series [1] (setting [5]), the IC50 is at most 100 nM. For the same molecule, in series [2], the AUC came out at 350 ± 156 ng·h/mL, the Cmax is 29.2 ± 15 ng/mL and the half-life is 7.21 ± 0.98 h. Also, the IC50 in series [3] is 19.2 nM.
Regarding `CCc1nn2cc(F)c(N3CCN(CC(=O)N4CC[C@@H](O)C4)CC3)cc2c1N(C)c1nc(-c2ccc(F)cc2)c(C#N)s1` [Example 109, (R)-2-((2-ethyl-6-fluoro-5-(4-(2-(3-hydroxypyrrolidin-1-yl)-2-oxoethyl)piperazin-1-yl)pyrazolo[1,5-a]pyridin-3-yl)(methyl)amino)-4-(4-fluorophenyl)thiazole-5-carbonitrile], the IC50 in series [1] (setting [4]) is at most 100 nM. Further, the IC50 in series [1] (setting [5]) is at most 100 nM. Also, in series [2], the AUC turned out to be 269 ± 85 ng·h/mL, the peak level (Cmax) was 67.1 ± 24 ng/mL and the half-life is 3.46 ± 0.21 h. The IC50 in series [3] is 10 nM.
`CCc1nn2cc(F)c(N3CCC4(CN(C(=O)N5CC(O)C5)C4)C3)cc2c1N(C)c1nc(-c2ccc(F)cc2)c(C#N)s1` [Example 111, 2-((2-ethyl-6-fluoro-5-(2-(3-hydroxyazetidine-1-carbonyl)-2,6-diazaspiro[3.4]octan-6-yl)pyrazolo[1,5-a]pyridin-3-yl)(methyl)amino)-4-(4-fluorophenyl)thiazole-5-carbonitrile]: the IC50 in series [1] (setting [4]) and in series [1] (setting [5]) was at most 100 nM each time.

Values taken from patent US10711000B2 (Fronthera U.S. Pharmaceuticals LLC, priority 2018, dated 2020).
